Experimental data: PubChem BioAssay (NCI)
“And” between values parts separate entries of the source, which are not always exact repeats. Identical values can stand only once.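 In this assay, cells in 96-well plates receive the compound at five concentrations for 48 hours. Endpoints are linearly interpolated between the surrounding concentrations. GI50 = concentration required for 50% inhibition of growth. TGI marks complete inhibition of growth.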

Assays:
Assay in all cases: DTP human tumour cell line panel, 48 h
OVCAR-4 ovarian = system: OVCAR-4 ovarian
SK-OV-3 ovarian = system: SK-OV-3 ovarian
LOX IMVI melanoma = system: LOX IMVI melanoma
SK-MEL-28 melanoma = system: SK-MEL-28 melanoma
SNB-19 CNS = system: SNB-19 CNS
SK-MEL-2 melanoma = system: SK-MEL-2 melanoma
IGROV1 ovarian = system: IGROV1 ovarian
PC-3 prostate = system: PC-3 prostate
MDA-N = system: MDA-N
A498 renal = system: A498 renal

Row | SMILES | TGI (OVCAR-4 ovarian) | TGI (SK-OV-3 ovarian) | TGI (LOX IMVI melanoma) | TGI (SK-MEL-28 melanoma) [µM] | TGI (SNB-19 CNS) [µM] | TGI (SK-MEL-2 melanoma) [µM] | TGI (IGROV1 ovarian) | TGI (PC-3 prostate) [µM] | TGI (MDA-N) [µM] | GI50 (IGROV1 ovarian) [µM] | GI50 (SK-OV-3 ovarian) [µM] | GI50 (SK-MEL-28 melanoma) [µM] | GI50 (SNB-19 CNS) [µM] | GI50 (A498 renal) [µM] | TGI (A498 renal) [µM]
1 | COc1ccc2c(c1OC)C(=O)C2 | > 100 µM | > 100 µM | > 100 µM | > 100 | > 100 | > 100 |  |  |  |  |  |  |  |  | 
2 | C(=N\NC1=NCCCCN1)/c1ccc2ccccc2c1 | > 100 µM | > 100 µM | 29.8 µM | 40.4 | > 100 | 46.7 | > 100 µM | > 100 |  |  |  |  |  |  | 
3 | COC(=O)c1ccc(OCCn2nnc(C(=O)NN)c2C(=O)NN)cc1 | > 100 µM |  | > 100 µM | > 100 | > 100 | > 100 |  | > 100 | > 100 |  |  |  |  |  | 
4 | COc1ccc2[nH]c3ccc4cc[n+](CCN5CCC(C6CCN(CC[n+]7ccc8ccc9[nH]c%10ccc(OC)cc%10c9c8c7)CC6)CC5)cc4c3c2c1 | 17.7 µM and > 100 µM | 45.8 µM and 20.6 µM | 50 µM and > 58.6 µM | > 50 | > 70.9 | > 90.7 | 50 µM and > 19 µM | 50 | 50 | 0.269 | 33.2 | > 50 | > 50 | > 50 | > 53.8
5 | N=C1OC(CN2CCN(c3ccccc3)CC2)CN1C(=O)Nc1ccccc1 (configuration not stated) | > 100 µM | > 100 µM | > 100 µM | > 100 | > 100 | > 100 | > 100 µM | > 100 | > 100 |  |  |  |  |  | > 100
6 | COc1cc(/C=C/c2ccc(OC)c(OC)c2)oc(=O)c1 | > 250 µM | > 250 µM | > 250 µM | > 250 | > 250 | > 250 | > 250 µM |  |  |  |  |  |  |  | > 250
7 | COc1cc(C[C@@]2(C)[C@@H]3CCC[C@H](CO)[C@@]3(C)CC[C@@H]2C)c(Cl)c(OC)c1 | 33.3 µM | 31.3 µM | 32.9 µM | 60.9 | 33.8 | 33.5 | 29.1 µM | 27.2 | 30.1 |  |  |  |  |  | 
8 | COC(=O)[C@@]12CSC[C@]1(C(=O)OC)N[C@@H](c1ccccc1O)C2 | > 100 µM | > 100 µM |  | > 100 | > 100 | > 100 | > 100 µM | > 100 | > 100 |  |  |  |  |  | > 100
9 | Cc1nc2c(Cl)cc(Cl)cc2c2c1CCO2 | > 100 µM |  | > 100 µM | > 100 | > 100 | > 100 | > 100 µM |  | > 100 |  |  |  |  |  | > 100
10 | CC1[C@@]2(O[C@@H]3C=C4C5CCC6Cc7nc8c(nc7C[C@@]6(C)C5C[C@H](O)[C@@]4(C)[C@]13O)CC1CCc3c(cc4c5c3C(O)C[C@H]5[C@@H](C)C3(O4)OC(C)(C)CC3O)[C@]1(C)C8)O[C@@](C)(CO)C[C@@H]2O (some centres not stated) |  | 0.976 µM | > 3.72 µM |  | > 3.72 | > 3.72 | > 3.72 µM |  |  |  |  |  |  |  | 0.59
11 | CC1=C[P+](c2ccccc2)(c2ccccc2)c2ccccc2O1 | > 100 µM | > 100 µM | 17.2 µM | 62.5 | > 100 | 94.6 | 44.9 µM | 17.1 |  |  |  |  |  |  | 
12 | COc1ccc(-c2cc(-c3ccc(C)cc3)n(C3OC(COC(C)=O)C(OC(C)=O)C(OC(C)=O)C3OC(C)=O)c(=S)c2C#N)cc1 (configuration not stated) | > 100 µM | > 100 µM | > 100 µM | > 100 | > 100 |  | > 100 µM | > 100 | > 100 |  |  |  |  |  | 
13 | N=c1oc2ccc3ccccc3c2cc1-c1nc2ccccc2c(=O)[nH]1 | 67.2 µM | > 100 µM | > 100 µM | > 100 | > 100 | 31.8 | 75.9 µM | > 100 | > 100 |  |  |  |  |  | 
14 | C/C(Cc1ccc2c(c1)OCO2)=N\N=c1\sc2ccccc2n1C | > 100 µM |  | > 100 µM | > 100 | > 100 | > 100 | > 100 µM | > 100 | > 100 |  |  |  |  |  | > 100
15 | O=[N+]([O-])c1ccc(C[P+]2(c3ccccc3)CCCCC2)cc1 (tested in a mixture with another compound) | > 100 µM | > 100 µM | > 100 µM | > 100 | > 100 | > 100 | > 100 µM |  |  |  |  |  |  |  | > 100
16 | COC(=O)c1csc(-c2csc(CCNC(=O)OC(C)(C)C)n2)n1 |  | > 100 µM |  | > 100 | > 100 |  | > 100 µM | > 100 | > 100 |  |  |  |  |  | 99
17 | Cc1cn(S(=O)(=O)c2ccccc2)c2c(OCc3ccccc3)cc([N+](=O)[O-])cc12 | > 100 µM | > 100 µM | > 100 µM | > 100 | > 100 | > 100 | > 100 µM | > 100 |  |  |  |  |  |  | > 100
18 | Cc1cc(=O)[nH]c2cc(NC(=O)C(C)NC(=O)C(C)NC(=O)C(C)NC(=O)OC(C)(C)C)ccc12 (configuration not stated) | > 15 µM |  | > 15 µM | > 15 | > 15 | > 15 | > 15 µM | > 15 | > 15 |  |  |  |  |  | > 15
19 | N=c1oc2cc(O)ccc2cc1C(=O)Nc1ccccn1 | > 100 µM | > 100 µM | > 100 µM | > 100 | > 100 | 97.2 | > 100 µM | > 100 |  |  |  |  |  |  | 98.2
20 | CC1=NNC(=O)C1C1(C(=O)O)CC(c2c[nH]c3ccccc23)=NC(=S)N1 (configuration not stated) |  | > 100 µM | 39.6 µM | > 100 | > 100 | 81.2 | > 100 µM | > 100 | > 100 |  |  |  |  |  | > 100
21 | O=C(COc1cc(=O)oc2ccccc12)c1ccccc1 | > 100 µM |  | > 100 µM | > 100 | 48.9 | > 100 | 76.7 µM |  | > 100 |  |  |  |  |  | > 100
22 | Nc1cc(CO)cc(Nc2c3ccccc3nc3ccccc23)c1 | 29.7 µM | 29.5 µM | 31.5 µM | 32 |  | 30.5 | 31.3 µM | 36 | 35.1 |  |  |  |  |  | 46.6
23 | Cc1cc2ncn(CC(=O)O)c2cc1C | > 100 µM | > 100 µM | > 100 µM | > 100 | > 100 | > 100 | > 100 µM | > 100 |  |  |  |  |  |  | > 100
